From patent US20150177202A1, “ODOR THRESHOLD TEST” (University of Tennessee Research Foundation, priority 2013, published 2015)
Several values for one entry are separate records, joined by “and”; a condition that tells them apart may be missing. Identical values can stand only once.

Legend:
olfactory system = test: WUTC Odor Threshold Test (yes-no detection of odorant dilutions in water, signal detection analysis); format: in vivo, human; design: Estimated odorant threshold, Mean / Mean estimated threshold / Estimated odorant threshold, Minimum: unit not given here; conditions: for Threshold: combined trials of all 33 subjects, logistic regression, p=0.5; for Estimated threshold compared with literature value: in vivo; for Estimated odorant threshold, Maximum: maximum of individual participant thresholds, in ppm; for Estimated odorant threshold, Mean: mean of individual participant thresholds; for Estimated odorant threshold, Minimum: minimum of individual participant thresholds
Source text: The present study involved the creation and study of a new test of olfactory ability, deemed the Wheeler University of Tennessee, Chattanooga (WUTC) Odor Threshold Test. This test was developed building upon the methodology behind signal detection theory as it allowed for multiple measures of olfactory ability to be calculated from a single test. These measures are sensitivity, response-bias, and threshold. Unlike currently available threshold tests, the WUTC Odor Threshold Test utilizes a randomized, multiple odor administration along with the presentation of blank concentrations.
A total of thirty three participants (N=33), collected from the UTC campus, were administered the WUTC threshold test.
To make the test, odorant molecules were first dissolved in a purified H2O solvent following their individual levels of solubility to create standard solutions. These standards were the highest concentration for each odorant and the base from which all successive dilutions were made. Liquid odorants ethanol, pinene, and isoamyl acetate were diluted by volume whereas para-cresol and vanillin were diluted by mass. Each standard was rounded to the nearest μL. A total of nine concentrations were made from each standard solution and diluted at a ratio of 1:2. The highest concentration for each odor as well as concentration ranges were chosen based on literature threshold values and a small, preliminary testing period. Solutions (10 mL) of each odorant were diluted and contained in sterilized and dried glass vials with black, screw-top lids (see FIG. 12).
Blanks were made using 10 mL of the same purified H2O used as a solvent for the other odorants. The final test contained 45 vials with odorant concentrations and nine blanks for a total of 54 vials. Tests were remade after either one month or ten administrations had been reached to avoid any amount of loss of odor strength that could result from extended shelf time or exposure to air during administrations. Before reproducing the test, vials underwent sterilization and drying procedures.
Each subject was instructed to complete the provided demographic form (see below). […] Each participant was then seated in a cushioned, high backed chair facing away from a table where each testing vial was placed. In a brief tutorial to the test, subjects were instructed that they would be presented with a number of vials, some containing odors and some not, one at a time. Subjects were then told that they would only be required to smell the contents of the vial and verbally give a “yes” or “no” answer as to whether they detected anything. […] Once the subject felt comfortable with the instructions presented in this tutorial, the actual test was started.
Following a randomly generated number sequence for each subject, a seated test administrator would select the correspondingly numbered test vial for each trial, place it in tongs, and hand it to a second administrator that, like the participant, was facing away from the administration table. […] The “yes” or “no” response given by the subject was recorded by the first administrator and the vial and tongs were returned to him/her by the second administrator. This procedure was repeated for each of the odorant tubes in the test with each tube presented to the participant twice.

[1] = tested on: premature newborn infants; conditions: olfactory stimulation; cited from earlier work
trigeminal nerve = conditions: cited from earlier work
[2] = concentration 1 (lowest), combined participant trials
[3] = concentration 2, combined participant trials
[4] = concentration 3, combined participant trials
[5] = concentration 4, combined participant trials
[6] = concentration 5, combined participant trials
[7] = concentration 6, combined participant trials
[8] = concentration 7, combined participant trials
[9] = concentration 8, combined participant trials
[10] = concentration 9 (highest), combined participant trials

Row | Compound | Threshold (olfactory system) [ppm] | Mean A′ (olfactory system; [2]) | Mean d′ (olfactory system; [2]) | Mean A′ (olfactory system; [3]) | Mean d′ (olfactory system; [3]) | Mean A′ (olfactory system; [4]) | Mean d′ (olfactory system; [4]) | Mean A′ (olfactory system; [5]) | Mean d′ (olfactory system; [5]) | Mean A′ (olfactory system; [6]) | Mean d′ (olfactory system; [6]) | Mean A′ (olfactory system; [7]) | Mean d′ (olfactory system; [7]) | Mean A′ (olfactory system; [8]) | Mean d′ (olfactory system; [8]) | Mean A′ (olfactory system; [9]) | Mean d′ (olfactory system; [9]) | Mean A′ (olfactory system; [10]) | Mean d′ (olfactory system; [10]) | Estimated threshold compared with literature value (olfactory system) | further results
1 | COc1cc(C=O)ccc1O [Vanillin, vanillin] | 112.426 | 0.39 | −0.302 | 0.478 | −0.053 | 0.531 | 0.077 | 0.625 | 0.359 | 0.561 | 0.16 | 0.678 | 0.55 | 0.781 | 1.024 | 0.796 | 1.11 | 0.888 | 1.885 | greater than values found | Estimated odorant threshold, Maximum (olfactory system): 339.932; Estimated odorant threshold, Mean (olfactory system): 119.978 and 19.978; Estimated odorant threshold, Minimum (olfactory system): 2.619; Mean estimated threshold (olfactory system; subjects with asthma (N=8)): 207.137; Mean estimated threshold (olfactory system; subjects without asthma (N=18)): 86.084; Effect on apnea [1]: significantly prevent apnea
2 | CCCCO [n-butanol, reference compound] | – | – | – | – | – | – | – | – | – | – | – | – | – | – | – | – | – | – | – | – | Concentration causing irritation of the trigeminal nerve (trigeminal nerve): approximately 200 ppm
3 | CC(=O)OCCC(C)C [Isoamyl Acetate, isoamyl acetate] | 38.274 | 0.407 | −0.249 | 0.424 | −0.198 | 0.424 | −0.198 | 0.478 | −0.053 | 0.716 | 0.704 | 0.716 | 0.704 | 0.796 | 1.11 | 0.826 | 1.299 | 0.781 | 1.024 | below its literature value | Estimated odorant threshold, Maximum (olfactory system): 65.102; Estimated odorant threshold, Mean (olfactory system): 13.935; Estimated odorant threshold, Minimum (olfactory system): 0.513
4 | Cc1ccc(O)cc1 [para-cresol] | 1.058 | 0.356 | −0.416 | 0.561 | 0.16 | 0.614 | 0.32 | 0.614 | 0.32 | 0.313 | 0.475 | 0.804 | 1.154 | 0.847 | 1.458 | 0.84 | 1.403 | 0.908 | 2.246 | at or within literature values | Estimated odorant threshold, Maximum (olfactory system): 5.28; Estimated odorant threshold, Mean (olfactory system): 1.340; Estimated odorant threshold, Minimum (olfactory system): 0.005
5 | CCO [Ethanol, ethanol] | 263.750 | 0.757 | 0.898 | 0.716 | 0.704 | 0.514 | 0.035 | 0.741 | 0.819 | 0.561 | 0.16 | 0.766 | 0.941 | 0.668 | 0.513 | 0.789 | 1.066 | 0.804 | 1.154 | at or within literature values | Mean estimated threshold (olfactory system; African Americans): 112.069; Mean estimated threshold (olfactory system; Caucasians): 344.968; Estimated odorant threshold, Maximum (olfactory system): 942.747; Estimated odorant threshold, Mean (olfactory system): 251.808; Estimated odorant threshold, Minimum (olfactory system): 1.057; Mean estimated threshold (olfactory system; participants with headaches (N=8)): 396.631; Mean estimated threshold (olfactory system; participants without headaches (N=12)): 155.260; Concentration causing irritation of the trigeminal nerve (trigeminal nerve): over 1000 ppm
6 | CC1=CCC2CC1C2(C)C [Pinene, L-α-pinene] | 275.598 | 0.407 | −0.249 | 0.757 | 0.898 | 0.561 | 0.16 | 0.514 | 0.035 | 0.668 | 0.513 | 0.724 | 0.742 | 0.847 | 1.458 | 0.901 | 2.097 | 0.875 | 1.72 | greater than values found | Estimated odorant threshold, Maximum (olfactory system): 795.338; Estimated odorant threshold, Mean (olfactory system): 251.225; Estimated odorant threshold, Minimum (olfactory system): 0.778; Activity as an irritant (trigeminal nerve): nearly inactive as an irritant
